Data taken from US20250340516A1, “Isoquinolinones as Modulators of POLRMT” (Pretzel Therapeutics, Inc., priority 2024, published 2025).

target: POLRMT (Homo sapiens (Human), UniProt O00411); assay: homogeneous TR-FRET assay of POLRMT inhibition (mitochondrial transcription, 407 bp RNA product); assay type: biochemical; details: 7.5 nM POLRMT, 15 nM TFB2M, 30 nM TFAM, 0.5 nM DNA template, 500 μM NTPs, 37° C., 60 minutes, * = aggregation of data sets, read-out: IC50 values for isoquinolinone compounds
Protocol: The inhibitory activity of the compounds of the present invention against POLRMT were determined by assays based on Bergbrede, T., et al., “An adaptable high-throughput technology enabling the identification of specific transcription modulators,” SLAC Discov., 22, 378-386 (2017).
The ability of some compounds of the present invention to inhibit POLRMT were determined in a homogeneous TR-FRET Assay using high-throughput screening in a 384-well plate format. This method is used to monitor the activity of mitochondrial transcription through measurement of its product, a 407 bp long RNA transcript. Detection of the product is facilitated by hybridization of two DNA-oligonucleotide probes to specific and adjacent sequences within the RNA product sequence. Upon annealing of the probes, two fluorophores are coupled directly to an acceptor nucleotide probe (ATTO647, 5′), or introduced via a coupled streptavidin with a biotinylated donor nucleotide probe (Europium cryptate) that is brought into sufficient proximity to serve as a fluorescence-donor-acceptor pair. Thus, a FRET signal at 665 nm is generated upon excitation at 340 nm.
Proteins used as transcription factors (POLRMT: NP_005026.3, TFAM: NP_003192.1, TFB2M: NP_071761.1) are diluted from their stocks to working concentrations of 1 μM, 20 μM and 4 μM respectively, in a dilution buffer containing 20 mM Tris-HCl (pH 8.0), 200 mM NaCl, 10% (v/v) glycerol, 1 mM Dithiothreitol (DTT), 0.5 mM EDTA.
DNA template is a pUC18 plasmid with the mitochondrial light strand promotor sequence (1-477) cloned between HindIII and BamHI sites. The DNA template is restriction linearized proximal to the promotor 3′-end (pUC-LSP).
The reaction mixture (10 uL) containing 7.5 nM POLRMT, 15 nM of TFB2M, 30 nM of TFAM, 0.5 nM of DNA template and 500 μM nucleotide triphosphate mix (NTPs) in a reaction buffer (containing 10 mM Tris-HCl (pH 7.5), 10 mM MgCl2, 40 mM NaCl, 10 mM DTT, 0.005% (w/v) Tween-20, 160 units/ml Rnase inhibitor and 0.1 mg/mL BSA) are dispensed to compounds in microplates, using a Thermo Multidrop® dispenser, and incubated at 37° C. in a VWR INCU-Line incubator for 60 minutes after mixing. No nucleotide triphosphate mix is added to negative control samples. Microplates with compounds to be tested in the assay are prepared from 10 mM compound stocks in 100% DMSO, equal amounts of DMSO without any compound are added to positive control and negative control samples.
During the incubation, a mix of the detection reagents is prepared in a buffer such that the enzymatic reaction is terminated due to chelating of Mg-ions and increased ionic strength, containing 50 mM Tris-HCl (pH 7.5), 700 mM NaCl, 20 mM EDTA, and 0.01% (w/v) Tween-20. Europium-streptavidin is pre-incubated with a 200-fold molar excess of a random sequence oligonucleotide to block unspecific binding of oligo, for two hours at ambient temperature in the dark. Afterwards, the blocked Europium-streptavidin is kept on ice until use.
At the end of the enzymatic reaction time, 5 μL detection oligo mix in the detection buffer is added, and assay plates are mixed and kept at ambient temperature for one hour, protected from light. The concentration of the Acceptor nucleotide oligo (e.g., ATTO647N-5′-[…]-3′ (SEQ ID NO: 1)) and Donor nucleotide oligo (e.g., bio-5′-AACACATCTCT(-bio)GCCAAACCCCA-bio-3′ (SEQ ID NO: 2)) in each assay well is 1 nM, and 3 nM, respectively.
After incubation with oligo mix, 5 μL of pre-blocked Europium-streptavidin reagent is dispensed to each assay well, assay plates are again mixed and kept at ambient temperature for one hour, protected from light.
The generated signal is measured with BMG Pherastar microtiter plate reader with a TRF light unit, using excitation at 340 nm, an integration time of 200 μs, and a delay time of 100 μs, before detection at 620 nm and 665 nm. The ratio of donor- and acceptor-fluorescence is used as a measure of the generated transcript product (i.e. enzymatic activity).

Chain of POLRMT (O00411 42-1230): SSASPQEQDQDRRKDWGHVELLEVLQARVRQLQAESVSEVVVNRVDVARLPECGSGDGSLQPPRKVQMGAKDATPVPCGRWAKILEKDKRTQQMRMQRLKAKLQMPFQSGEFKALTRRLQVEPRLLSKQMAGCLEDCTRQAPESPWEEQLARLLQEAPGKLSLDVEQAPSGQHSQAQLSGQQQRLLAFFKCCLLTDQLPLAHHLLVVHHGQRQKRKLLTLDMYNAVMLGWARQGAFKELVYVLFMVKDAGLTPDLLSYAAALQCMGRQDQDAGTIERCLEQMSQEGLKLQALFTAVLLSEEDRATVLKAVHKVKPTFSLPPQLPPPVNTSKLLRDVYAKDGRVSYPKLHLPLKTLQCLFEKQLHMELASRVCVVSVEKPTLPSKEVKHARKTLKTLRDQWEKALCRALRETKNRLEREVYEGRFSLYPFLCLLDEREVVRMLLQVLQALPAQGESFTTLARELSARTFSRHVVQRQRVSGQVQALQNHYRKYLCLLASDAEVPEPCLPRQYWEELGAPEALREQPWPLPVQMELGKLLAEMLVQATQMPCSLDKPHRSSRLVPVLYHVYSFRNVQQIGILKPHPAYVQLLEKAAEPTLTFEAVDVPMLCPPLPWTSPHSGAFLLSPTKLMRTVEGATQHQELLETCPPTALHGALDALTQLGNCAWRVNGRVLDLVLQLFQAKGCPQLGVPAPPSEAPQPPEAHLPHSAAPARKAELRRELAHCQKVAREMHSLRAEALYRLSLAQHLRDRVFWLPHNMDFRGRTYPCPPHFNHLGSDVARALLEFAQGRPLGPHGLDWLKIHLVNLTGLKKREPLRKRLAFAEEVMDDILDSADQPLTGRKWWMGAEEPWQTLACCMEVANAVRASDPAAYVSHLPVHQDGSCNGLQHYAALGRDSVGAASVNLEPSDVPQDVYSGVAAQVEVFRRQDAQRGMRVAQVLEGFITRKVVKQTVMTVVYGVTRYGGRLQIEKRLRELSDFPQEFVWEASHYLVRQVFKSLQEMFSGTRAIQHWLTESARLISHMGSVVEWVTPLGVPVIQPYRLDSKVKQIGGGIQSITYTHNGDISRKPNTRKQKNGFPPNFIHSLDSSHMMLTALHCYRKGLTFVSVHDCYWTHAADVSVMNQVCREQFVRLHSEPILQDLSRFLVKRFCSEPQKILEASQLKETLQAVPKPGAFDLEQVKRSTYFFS

Structure (SMILES) | IC50
Cc1ccccc1-c1c[nH]c(=O)c2cc(N(C)CC(=O)N[C@H](C)C(N)=O)ccc12 [Example 69, (R)-2-(2-(methyl(1-oxo-4-(o-tolyl)-1,2-dihydroisoquinolin-7-yl)amino)acetamido)propanamide] | 3000 nM
Cc1ccccc1-c1c[nH]c(=O)c2cc(O[C@@H](C)C(=O)N(C)CC(=O)O)ccc12 [Example 26, (S)-N-methyl-N-(2-((1-oxo-4-(o-tolyl)-1,2-dihydroisoquinolin-7-yl)oxy)propanoyl)glycine] | 43000 nM
CCN1CCN(C(=O)[C@@H](C)Oc2ccc3c(-c4ccccc4C)c[nH]c(=O)c3c2)CC1 [Example 18, (R)-7-((1-(4-ethylpiperazin-1-yl)-1-oxopropan-2-yl)oxy)-4-(o-tolyl)isoquinolin-1(2H)-one] | 200 nM
CC(=O)NCCN(C)C(=O)[C@@H](C)Oc1ccc2c(-c3ccccc3C)c[nH]c(=O)c2c1 [Example 19, (R)-N-(2-acetamidoethyl)-N-methyl-2-((1-oxo-4-(o-tolyl)-1,2-dihydroisoquinolin-7-yl)oxy)propanamide] | 2000 nM
Cc1ccccc1-c1c[nH]c(=O)c2cc(O[C@H](C)C(=O)N3CCCC(C4(C(N)=O)CC4)C3)ccc12 (single isomer, unassigned) [Example 40] | 20 nM
N#CCOc1ccc2c(-c3ccccc3CCO)c[nH]c(=O)c2c1 [Example 42, 2-((4-(2-(2-hydroxyethyl)phenyl)-1-oxo-1,2-dihydroisoquinolin-7-yl)oxy)acetonitrile] | 300 nM
Cc1ccccc1-c1c[nH]c(=O)c2cc(O[C@H](C)C(=O)N(C)CC(=O)O)ccc12 [Example 78, (R)-N-methyl-N-(2-((1-oxo-4-(o-tolyl)-1,2-dihydroisoquinolin-7-yl)oxy)propanoyl)glycine] | 1000 nM
CCOC(=O)CN(C)c1ccc2c(-c3ccccc3C)c[nH]c(=O)c2c1 [Example 3, ethyl N-methyl-N-(1-oxo-4-(o-tolyl)-1,2-dihydroisoquinolin-7-yl)glycinate] | 300 nM
Cc1ccccc1-c1c[nH]c(=O)c2cc(O[C@H](C)C(=O)N3CCCC(C(C)(C)C(N)=O)C3)ccc12 (single isomer, unassigned) [Example 46] | 40 nM
C[C@@H](Oc1ccc2c(-c3ccc(F)cc3Cl)c[nH]c(=O)c2c1)C(=O)N1CCC(C)(C(=O)O)CC1 [Example 14, (R)-1-(2-((4-(2-chloro-4-fluorophenyl)-1-oxo-1,2-dihydroisoquinolin-7-yl)oxy)propanoyl)-4-methylpiperidine-4-carboxylic acid] | 100 nM
CC(=O)N[C@@H]1CCCN(C(=O)[C@@H](C)Oc2ccc3c(-c4ccccc4C)c[nH]c(=O)c3c2)C1 [Example 29, N-((R)-1-((R)-2-((1-oxo-4-(o-tolyl)-1,2-dihydroisoquinolin-7-yl)oxy)propanoyl)piperidin-3-yl)acetamide] | 100 nM
Cc1ccccc1-c1c[nH]c(=O)c2cc(O[C@H](C)C(=O)N3CCCC(C4(C(=O)O)CC4)C3)ccc12 (stereo partly drawn) [Example 34, 1-(1-((R)-2-((1-oxo-4-(o-tolyl)-1,2-dihydroisoquinolin-7-yl)oxy)propanoyl)piperidin-3-yl)cyclopropane-1-carboxylic acid] | 30 nM
Cc1ccccc1-c1c[nH]c(=O)c2cc(O[C@H](C)C(=O)N3CCC(N(C)C)CC3)ccc12 [Example 31, (R)-7-((1-(4-(dimethylamino)piperidin-1-yl)-1-oxopropan-2-yl)oxy)-4-(o-tolyl)isoquinolin-1(2H)-one] | 300 nM
C[C@@H](Oc1ccc2c(-c3ccc(F)cc3Cl)c[nH]c(=O)c2c1)C(=O)N1CCCC(C(C)(C)C(=O)O)C1 (single isomer, unassigned) [Example 51] | 300 nM
Cc1ccccc1-c1c[nH]c(=O)c2cc(O[C@H](C)C(=O)N3CCCC(C(C)(C)C(=O)O)C3)ccc12 (single isomer, unassigned) [Example 43] | 20 nM
Cc1cccc(CO)c1-c1c[nH]c(=O)c2cc(OCC(F)(F)F)ccc12 [Example 71, 4-(2-(hydroxymethyl)-6-methylphenyl)-7-(2,2,2-trifluoroethoxy)isoquinolin-1(2H)-one] | 80 nM
Cc1ccccc1-c1c[nH]c(=O)c2cc(O[C@H](C)C(=O)N(C)CC(N)=O)ccc12 [Example 61, (R)-N-(2-amino-2-oxoethyl)-N-methyl-2-((1-oxo-4-(o-tolyl)-1,2-dihydroisoquinolin-7-yl)oxy)propanamide] | 100 nM

Second part, the molecule after the results:

IC50 | Structure (SMILES)
300 nM | Cc1ccccc1-c1c[nH]c(=O)c2cc(O[C@H](C)C(=O)N3CCC[C@@H](N(C)C)C3)ccc12 [Example 33, 7-(((R)-1-((R)-3-(dimethylamino)piperidin-1-yl)-1-oxopropan-2-yl)oxy)-4-(o-tolyl)isoquinolin-1(2H)-one]
18000 nM | COCc1ccccc1-c1c[nH]c(=O)c2cc(OCC#N)ccc12 [Example 47, 2-((4-(2-(methoxymethyl)phenyl)-1-oxo-1,2-dihydroisoquinolin-7-yl)oxy)acetonitrile]
300 nM | COCCN1CCN(C(=O)[C@@H](C)Oc2ccc3c(-c4ccccc4C)c[nH]c(=O)c3c2)CC1=O [Example 23, (R)-7-((1-(4-(2-methoxyethyl)-3-oxopiperazin-1-yl)-1-oxopropan-2-yl)oxy)-4-(o-tolyl)isoquinolin-1(2H)-one]
60 nM | C[C@@H](Oc1ccc2c(-c3ccc(F)cc3Cl)c[nH]c(=O)c2c1)C(=O)N1CCCC(C(C)(C)C(=O)O)C1 (single isomer, unassigned) [Example 50]
1000 nM | Cc1c(F)cccc1-c1c[nH]c(=O)c2cc(N(C)CC(=O)NCCO)ccc12 [Example 70, 2-((4-(3-fluoro-2-methylphenyl)-1-oxo-1,2-dihydroisoquinolin-7-yl)(methyl)amino)-N-(2-hydroxyethyl)acetamide]
60 nM | Cc1ccccc1-c1c[nH]c(=O)c2cc(O[C@H](C)C(=O)N3CCCC(CC(=O)O)C3)ccc12 (single isomer, unassigned) [Example 12]
100 nM | Cc1ccccc1-c1c[nH]c(=O)c2cc(O[C@H](C)C(=O)NCC(N)=O)ccc12 [Example 60, (R)-N-(2-amino-2-oxoethyl)-2-((1-oxo-4-(o-tolyl)-1,2-dihydroisoquinolin-7-yl)oxy)propanamide]
8000 nM | C[C@@H](C(=O)N1CCC[C@H](C(=O)O)C1)N(C)c1ccc2c(-c3ccc(F)cc3Cl)c[nH]c(=O)c2c1 (single isomer, unassigned) [Example 5]
2000 nM | CC(=O)N(C)CCNC(=O)[C@@H](C)Oc1ccc2c(-c3ccccc3C)c[nH]c(=O)c2c1 [Example 17, (R)-N-(2-(N-methylacetamido)ethyl)-2-((1-oxo-4-(o-tolyl)-1,2-dihydroisoquinolin-7-yl)oxy)propanamide]
100 nM | CC(=O)N[C@H]1CCCN(C(=O)[C@@H](C)Oc2ccc3c(-c4ccccc4C)c[nH]c(=O)c3c2)C1 [Example 28, N-((S)-1-((R)-2-((1-oxo-4-(o-tolyl)-1,2-dihydroisoquinolin-7-yl)oxy)propanoyl)piperidin-3-yl)acetamide]
500 nM | Cc1cccc(C#N)c1-c1c[nH]c(=O)c2cc(OCC#N)ccc12 [Example 48, 2-(7-(cyanomethoxy)-1-oxo-1,2-dihydroisoquinolin-4-yl)-3-methylbenzonitrile]
